Data set [1] deals with Escherichia coli. Nature of the data set: Potency index, ratio of norfloxacin MIC to test compound MIC for antibacterial activity against Escherichia coli ATCC 25922 assessed as inhibition of bacterial growth measured after 24 hrs incubation. Format: functional.
The test system of data set [2] is Pseudomonas aeruginosa. Briefly: Potency index, ratio of norfloxacin MIC to test compound MIC for antibacterial activity against Pseudomonas aeruginosa ATCC 27853 assessed as inhibition of bacterial growth measured after 24 hrs incubation. Format: functional.
Data set [3] relates to Staphylococcus aureus. Briefly: Anti-biofilm effect in methicillin-resistant Staphylococcus aureus N315 assessed as biofilm destruction rate at 6 times of MIC. The data set is classed as functional.
Data set [4] has as its system Pseudomonas aeruginosa. Nature of the data set: Potency index, ratio of norfloxacin MIC to test compound MIC for antibacterial activity against Pseudomonas aeruginosa assessed as inhibition of bacterial growth measured after 24 hrs incubation. Format: functional.
For another data set, the system named is Enterococcus faecalis. Nature of the data set: Antibacterial activity against Enterococcus faecalis assessed as inhibition of bacterial growth measured after 24 hrs incubation. The data set is classed as functional.
In another data set the test system is Calf thymus DNA. Nature of the data set: Binding affinity to calf thymus DNA assessed as DNA intercalation with drug by […] assay. The data set is classed as nucleic-acid assay. To be noted: Bos taurus.
A short description of data set [5]: Hemolytic activity in human red blood cells assessed as hemolysis rate at 512 ug/ml relative to control. Format: toxicity, cell-based, Erythrocyte. To be noted: red blood cells (erythrocytes), at 512 µg/mL, read-out: Activity.
Data set [6] deals with Escherichia coli. Briefly: Anti-biofilm effect in Escherichia coli assessed as biofilm destruction rate at 6 times of MIC. Format: functional.
The test system of data set [7] is Acinetobacter baumannii. Briefly: Antibacterial activity against Acinetobacter baumannii assessed as inhibition of bacterial growth measured after 24 hrs incubation. Format: functional.
In data set [8] the test system is Staphylococcus aureus. Nature of the data set: Antibacterial activity against methicillin-resistant Staphylococcus aureus N315 assessed as reduction in bacterial burden at 2 to 4 times of MIC measured within 5 hrs by time-dependent kinetics assay. The data set is classed as functional, organism-based.
Data set [9] concerns Staphylococcus aureus. Nature of the data set: Antibacterial activity against methicillin-resistant Staphylococcus aureus N315 assessed as inhibition of bacterial growth measured after 24 hrs incubation. Format: functional.
Data set [10] relates to Acinetobacter baumannii. Briefly: Potency index, ratio of norfloxacin MIC to test compound MIC for Antibacterial activity against Acinetobacter baumannii assessed as inhibition of bacterial growth measured after 24 hrs incubation. Format: functional.
The subject of another data set is Klebsiella pneumoniae. Nature of the data set: Potency index, ratio of norfloxacin MIC to test compound MIC for antibacterial activity against Klebsiella pneumonia assessed as inhibition of bacterial growth measured after 24 hrs incubation. The data set is classed as functional.

In brackets after ≈: the same amount, converted by molar mass. Activity calls are given as the source filed them. No cut-off for these calls is given here.

With `CCOC(=O)Cn1cc(/C=C(\C#N)C(=O)N2CCN(c3cc4c(cc3F)c(=O)c(C(=O)O)cn4CC)CC2)c2ccccc21`, the Ratio in the data set with Escherichia coli [1], with Pseudomonas aeruginosa [2], with Pseudomonas aeruginosa [4], in the data set with Acinetobacter baumannii [10] and in the data set with Klebsiella pneumoniae was 1 each time. Also, the “inhibition (INH)” value in the data set with Staphylococcus aureus [3] and in the data set on Escherichia coli [6] was >60% in each case. For the same compound, the MIC with Enterococcus faecalis, in the data set on Acinetobacter baumannii [7] and in the data set on Staphylococcus aureus [9] was 0.25 µg/mL (≈ 0.417 µM) each time. Further, the result in the data set on Calf thymus DNA and in the data set on Staphylococcus aureus [8] was Active. Moreover, in data set [5], the hemolysis at 512 ug/ml was < 5%.
